Test [1] addresses T1, TRα (Homo sapiens, UniProt P10827).
T1 construct: expressed in transfected cells; host or cells: HEK293
T1 sequence (P10827 128-410 isoform P10827-2 limits assumed): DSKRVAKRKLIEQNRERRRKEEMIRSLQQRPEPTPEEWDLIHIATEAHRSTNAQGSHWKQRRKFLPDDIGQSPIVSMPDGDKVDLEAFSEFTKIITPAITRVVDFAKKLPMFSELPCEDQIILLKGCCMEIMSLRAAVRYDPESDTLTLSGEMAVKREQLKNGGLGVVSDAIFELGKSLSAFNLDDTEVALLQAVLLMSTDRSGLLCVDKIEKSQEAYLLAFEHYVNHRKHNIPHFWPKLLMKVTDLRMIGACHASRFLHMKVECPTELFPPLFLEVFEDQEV
Briefly: Thyroid-hormone reporter-gene assay, TRα (Gal4 DBD hybrid, luciferase, HEK293). It counts as cell-based. To be noted: reporter cells derived from HEK293, 24 hr incubation, luciferase readout.

Test [2] concerns the target T2, TRβ (Homo sapiens, UniProt P10828).
T2 construct: expressed in transfected cells; host or cells: HEK293
T2 sequence (P10828 217-461 limits assumed): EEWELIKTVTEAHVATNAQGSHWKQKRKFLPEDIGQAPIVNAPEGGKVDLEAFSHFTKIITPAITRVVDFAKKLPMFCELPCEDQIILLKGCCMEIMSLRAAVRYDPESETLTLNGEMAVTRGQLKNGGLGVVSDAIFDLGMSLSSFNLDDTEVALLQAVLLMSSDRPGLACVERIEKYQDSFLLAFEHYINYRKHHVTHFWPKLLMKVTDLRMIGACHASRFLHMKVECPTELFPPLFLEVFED
Briefly: Thyroid-hormone reporter-gene assay, TRβ (Gal4 DBD hybrid, luciferase, HEK293). It counts as cell-based. To be noted: for T3-SI, selectivity index (SI) calculated as EC50 (TRα)/EC50 (TRβ): TRβ over TRα selectivity from reporter-gene EC50 values; for EC50: reporter cells derived from HEK293, 24 hr incubation, luciferase readout.

`O=C(O)COc1cc(Cl)c(Cc2ccc(O)c(Cc3ccsc3)c2)c(Cl)c1` [Compound 121, 2-(3,5-dichloro-4-(4-hydroxy-3-(thiophen-3-ylmethyl)benzyl)phenoxy) acetic Acid]: the EC50 in test [1] was > 1000 nM. Besides, in test [2], the “T3-SI, selectivity index (SI) calculated as EC50 (TRα)/EC50 (TRβ)” value (from here on “T3-SI, selectivity index (SI) calculated”) is “++ (3X < T3-SI ≤ 30X)” and the EC50 lay in the range of 100 to 1000 nM.
As to `O=C(O)COc1cc(Cl)c(Cc2ccc(O)c(Cc3cccs3)c2)c(Cl)c1` [Compound 123, 2-(3,5-dichloro-4-(4-hydroxy-3-(thiophen-2-ylmethyl)benzyl)phenoxy) acetic Acid], the concentration for a half-maximal effect (EC50) in test [1] is > 1000 nM. Besides, in test [2], the “T3-SI, selectivity index (SI) calculated” value is “++ (3X < T3-SI ≤ 30X)” and the EC50 was 100 to 1000 nM.
The corresponding values for `O=C(O)COc1cc(Cl)c(Cc2ccc(O)c(C(c3ccc(F)cc3)C(F)(F)F)c2)c(Cl)c1` (stereo not drawn) [Compound 125] are 100 to 1000 nM, “++ (3X < T3-SI ≤ 30X)” and 10 to 100 nM.
The matching figures for `O=C(O)COc1cc(Cl)c(Cc2ccc(O)c(C(CC(F)(F)F)c3ccc(F)cc3)c2)c(Cl)c1` (stereo not drawn) [Compound 127, 2-(3,5-dichloro-4-(4-hydroxy-3-(3,3,3-trifluoro-1-(4-fluorophenyl)propyl)benzyl)phenoxy)acetic Acid]: 100 to 1000 nM, “++ (3X < T3-SI ≤ 30X)” and 10 to 100 nM.
The matching figures for `COCC(c1ccc(F)cc1)c1cc(Cc2c(Cl)cc(OCC(=O)O)cc2Cl)ccc1O` (stereo not drawn) [Compound 129, 2-(3,5-dichloro-4-(3-(1-(4-fluorophenyl)-2-methoxyethyl)-4-hydroxybenzyl)phenoxy)acetic Acid]: > 1000 nM, “+++ (T3-SI > 30X)” and 100 to 1000 nM.
In test [1], `Cc1cc(OCC(=O)O)cc(Br)c1Cc1ccc(O)c(C(C)c2ccc(F)cc2)c1` (stereo not drawn) [Compound 131, 2-(3-bromo-4-(3-(1-(4-fluorophenyl)ethyl)-4-hydroxybenzyl)-5-methylphenoxy)acetic Acid] gave an EC50 of 10 to 100 nM. Also, in test [2], the “T3-SI, selectivity index (SI) calculated” value was “++ (3X < T3-SI ≤ 30X)” and the EC50 is < 10 nM.
`Cc1cc(OCC(=O)O)cc(C)c1Cc1ccc(O)c(Cc2ccc(F)cc2)c1` [Compound 133, 2-(4-(3-(4-fluorobenzyl)-4-hydroxybenzyl)-3,5-dimethylphenoxy)acetic Acid] yielded a concentration for a half-maximal effect (EC50) in test [1] of 100 to 1000 nM. For the same compound, in test [2], the “T3-SI, selectivity index (SI) calculated” value is reported as “++ (3X < T3-SI ≤ 30X)” and the EC50 lay in the range of 10 to 100 nM.
Turning to `O=C(O)COc1cc(Cl)c(Cc2ccc(O)c(CCc3ccc(F)cc3)c2)c(Cl)c1` [Compound 135, 2-(3,5-dichloro-4-(3-(4-fluorophenethyl)-4-hydroxybenzyl)phenoxy)acetic Acid], the EC50 in test [1] and in test [2] was > 1000 nM throughout. Moreover, the “T3-SI, selectivity index (SI) calculated” value in test [2] was “++ (3X < T3-SI ≤ 30X)”.
In the case of `O=C(COc1cc(Cl)c(Cc2ccc(O)c(-c3cccc(OC(F)F)c3)c2)c(Cl)c1)N1CC1` [Compound 138, 1-(aziridin-1-yl)-2-(3,5-dichloro-4-((3′-(difluoromethoxy)-6-hydroxy-[1,1′-biphenyl]-3-yl)methyl)phenoxy)ethan-1-one], the concentration giving a half-maximal response (EC50) in test [1] is > 1000 nM. In addition, in test [2], the “T3-SI, selectivity index (SI) calculated” value is reported as “++ (3X < T3-SI ≤ 30X)” and the concentration for a half-maximal effect (EC50) was 100 to 1000 nM.

The EC50 is the concentration at which the effect is half-maximal. Low readings indicate an effect from little substance, high ones a need for much substance.

(Values after patent US11667606B2, “Thyromimetics” (Autobahn Therapeutics, Inc., priority 2019, dated 2023).)
